Assay results from publication PMC6150412, “Design, Synthesis, and Evaluation of Novel Phenolic Acid/Dipeptide/Borneol Hybrids as Potent Angiotensin Converting Enzyme (ACE) Inhibitors with Anti-hypertension Activity” (Molecules : A Journal of Synthetic Chemistry and Natural …, 2017).

Assays:
[1] = biological target: T1, angiotensin converting enzyme (ACE) (Oryctolagus cuniculus, UniProt P12822); experiment: In vitro ACE inhibition assay (hippuric acid release from HHL); assay type: biochemical; conditions: HHL substrate, pH 8.3, 37 °C, 15 min; five concentrations 0.01–10 µM; read-out: ACE-inhibitory activity IC50
T1 construct: purchased Sigma-aldrich, St. Louis, MO, USA A-6778
T1 sequence (P12822 34-1310): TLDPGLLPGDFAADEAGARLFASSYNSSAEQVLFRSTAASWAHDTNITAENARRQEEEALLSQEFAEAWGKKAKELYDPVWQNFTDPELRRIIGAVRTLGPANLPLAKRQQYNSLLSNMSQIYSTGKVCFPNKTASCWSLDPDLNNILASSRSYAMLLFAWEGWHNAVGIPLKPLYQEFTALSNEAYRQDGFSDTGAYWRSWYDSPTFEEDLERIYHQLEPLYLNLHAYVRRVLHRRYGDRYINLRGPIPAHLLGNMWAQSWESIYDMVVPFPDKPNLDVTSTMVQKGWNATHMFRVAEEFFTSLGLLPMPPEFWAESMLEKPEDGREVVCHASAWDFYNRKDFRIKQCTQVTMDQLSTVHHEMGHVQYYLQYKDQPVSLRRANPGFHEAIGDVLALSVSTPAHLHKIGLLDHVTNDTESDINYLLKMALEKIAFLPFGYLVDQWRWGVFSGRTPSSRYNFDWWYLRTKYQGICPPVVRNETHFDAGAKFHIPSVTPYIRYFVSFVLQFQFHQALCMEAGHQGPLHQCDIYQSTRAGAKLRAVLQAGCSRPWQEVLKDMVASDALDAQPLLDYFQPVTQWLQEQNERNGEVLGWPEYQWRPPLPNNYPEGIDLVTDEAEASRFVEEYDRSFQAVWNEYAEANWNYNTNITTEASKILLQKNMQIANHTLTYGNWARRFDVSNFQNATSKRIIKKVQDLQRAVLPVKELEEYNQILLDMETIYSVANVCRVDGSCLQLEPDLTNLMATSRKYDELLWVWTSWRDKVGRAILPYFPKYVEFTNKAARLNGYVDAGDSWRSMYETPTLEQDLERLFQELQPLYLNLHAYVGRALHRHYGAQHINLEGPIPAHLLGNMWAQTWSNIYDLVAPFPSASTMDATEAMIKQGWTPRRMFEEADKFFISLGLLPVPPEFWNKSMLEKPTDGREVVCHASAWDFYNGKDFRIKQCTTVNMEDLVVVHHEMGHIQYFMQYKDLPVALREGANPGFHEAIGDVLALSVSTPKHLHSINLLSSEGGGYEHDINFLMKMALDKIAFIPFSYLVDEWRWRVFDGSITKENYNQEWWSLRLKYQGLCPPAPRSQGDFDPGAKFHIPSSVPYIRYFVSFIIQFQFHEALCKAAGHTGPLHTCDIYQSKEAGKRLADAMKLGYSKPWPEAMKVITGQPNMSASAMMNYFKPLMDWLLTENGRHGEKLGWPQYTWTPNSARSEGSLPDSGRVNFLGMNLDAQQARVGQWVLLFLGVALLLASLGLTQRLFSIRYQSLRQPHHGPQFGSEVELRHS
Experimental: The in vitro ACE-inhibitory activity of the newly synthesized compounds was evaluated using ACE inhibition assay (Sigma-aldrich, St. Louis, MO, USA, No. A-6778). The experiments were carried out for all the designed compounds (7a–7h), for ACE-inhibitory activity at five different concentrations (0.01–10 µM). Lisinopril, a well-known ACE inhibitor drug, was used as standard for comparison with the inhibitory activity of synthesized compounds. The ACE-inhibitory activity can be calculated by the following equation: ACE-inhibitory activity (inhibition rate %) = [(Ablank1 − Asample)/(Ablank1 − Ablank2)] × 100, where blank 1: Positive control (without ACE inhibition) and blank 2: Reagent blank. Then we measured and calculated the IC50 values of the designed compounds (7a–7h).
The preliminary biological investigations were conducted in vitro using the ACE-inhibition assay. […] That is, the activity of these compounds gradually declined when the size of the amino acid side chain increased. Besides, the influence of phenolic acids on ACE-inhibitory activity was more obvious following the order: protocatechuic acid > ferulic acid > gallic acid > 3,4-dihydroxybenzene acid. That is, substituents in positions 3 and 4 in the benzene ring are beneficial to the increase of ACE-inhibitory activity. At the same time, the shorter the amino side chain in phenolic acids, the better the ACE-inhibitory activity.

[2] = test system: spontaneously hypertensive rats (SHRs); experiment: Acute antihypertensive test, single intragastric dose, tail-cuff BP; assay type: in vivo, rat; conditions: for Duration of antihypertensive activity / Reduction in blood pressure (systolic arterial pressure) compared with lisinopril: single oral dose; for Reduction in blood pressure (systolic arterial pressure) compared with lisinopril: same molar dose as lisinopril
Experimental: (§1) All the experiments were approved by the Institutional Animal Ethics Committee of Northwest University. Experiments were carried out on spontaneously hypertension rats (SHRs) that were 9–10 weeks old and weighed 200–220 g. SHRs treated with normal saline were used as controls. Lisinopril was used as a standard drug. Blood pressure (BP) was recorded automatically every day by the indirect tail-cuff method using an electrosphygmomanometer (BP-2010A Storage Pressure Meter). […] The BP were measured before and 0.5, 1, 2, 3, 4, 5 and 6 h after a single dose of intragastrical administration of active compounds.
(§2) Figure 4 (A,B), the acute antihypertensive activity of compounds 7a and 7g in spontaneously hypertension rats (SHRs) for single dose administration (dosing time: 0 min); (C) the therapeutic antihypertensive activity of compounds 7a and 7g in SHRs for 7 days treatment (dosing time: 0 day; blood pressure (BP) measured time: 9:30–11:30 am). Data are presented as mean ± SEM, n = 6. The BP was determined with a BP-2010A Storage Pressure Meter. This system measures BP by recording the cuff pressure at which the interrupted blood flow returns to the tail. Before drug administration, training consisted of five sessions over 3 days. The SHRs were placed into a thermostatically controlled Lucite box of the Visitech system BP2010A, and heated on a heated pad maintained at 37 °C for 2 min before BP measurement started. The tail root of SHR was surrounded by an inflatable tubular sleeve, and a pulse electron detector was placed in the root of the tails. Then BP was measured after the computer provided a stable signal. The BP for the session was accepted as the average of five BP readings that were within 10 mm Hg. The average BP values were calculated by employing the ANOVA method.

[3] = test system: spontaneously hypertensive rats (SHRs); experiment: Therapeutic antihypertensive test, 7 consecutive days oral treatment, tail-cuff BP; assay type: in vivo, rat; conditions: for Maximum antihypertensive effect compared with lisinopril (20 mg/kg/day): 100 mg/kg daily, oral, 7 days; for Blood pressure during repeated treatment: 100 mg/kg, Po. 7 days
Experimental: as §1, §2

| SMILES | IC50 [1] [µM] | Onset of antihypertensive activity after oral treatment [2] [h] | Duration of antihypertensive activity [2] | Reduction in blood pressure (systolic arterial pressure) compared with lisinopril [2] | Maximum antihypertensive effect compared with lisinopril (20 mg/kg/day) [3] | Blood pressure during repeated treatment [3] |
| --- | --- | --- | --- | --- | --- | --- |
| NCCCC[C@H](N[C@@H](CCc1ccccc1)C(=O)O)C(=O)N1CCC[C@H]1C(=O)O [Lisinopril, reference compound] | < 0.01 | – | – | – | – | – |
| COc1cc(/C=C/C(=O)N[C@H](C(=O)N2CCC[C@H]2C(=O)OC2CC3CCC2(C)C3(C)C)C(C)C)ccc1O (stereo partly shown) [Compound 7c] | 11.9 ± 1.82 | – | – | – | – | – |
| CC(C)[C@H](NC(=O)c1ccc(O)c(O)c1)C(=O)N1CCC[C@H]1C(=O)OC1CC2CCC1(C)C2(C)C (stereo partly shown) [Compound 7a] | 6.76 ± 0.96 | 0.5 | four | slightly better than that of lisinopril | approximately equivalent to that of lisinopril | decreased remarkably on the second day after oral administration |
| CC(C)C[C@H](NC(=O)c1cc(O)c(O)c(O)c1)C(=O)N1CCC[C@H]1C(=O)OC1CC2CCC1(C)C2(C)C (stereo partly shown) [Compound 7h] | 13.2 ± 2.47 | – | – | – | – | – |
| CC(C)C[C@H](NC(=O)c1ccc(O)c(O)c1)C(=O)N1CCC[C@H]1C(=O)OC1CC2CCC1(C)C2(C)C (stereo partly shown) [Compound 7e] | 10.6 ± 1.72 | – | – | – | – | – |
| COc1cc(/C=C/C(=O)N[C@@H](CC(C)C)C(=O)N2CCC[C@H]2C(=O)OC2CC3CCC2(C)C3(C)C)ccc1O (stereo partly shown) [Compound 7g] | 6.88 ± 0.85 | 0.5 | four | slightly better than that of lisinopril | approximately equivalent to that of lisinopril | decreased remarkably on the second day after oral administration |
| CC(C)C[C@H](NC(=O)Cc1ccc(O)c(O)c1)C(=O)N1CCC[C@H]1C(=O)OC1CC2CCC1(C)C2(C)C (stereo partly shown) [Compound 7f] | 14 ± 1.84 | – | – | – | – | – |
| CC(C)[C@H](NC(=O)c1cc(O)c(O)c(O)c1)C(=O)N1CCC[C@H]1C(=O)OC1CC2CCC1(C)C2(C)C (stereo partly shown) [Compound 7d] | 13.5 ± 2.02 | – | – | – | – | – |
| CC(C)[C@H](NC(=O)Cc1ccc(O)c(O)c1)C(=O)N1CCC[C@H]1C(=O)OC1CC2CCC1(C)C2(C)C (stereo partly shown) [Compound 7b] | 13.9 ± 1.61 | – | – | – | – | – |
